# Laboratory results from ChEMBL document CHEMBL4715719, “Synthesis and biological properties of polyamine modified flavonoids as hepatocellular carcinoma inhibitors” (Eur J Med Chem, 2016).
# Activity calls are given as the source filed them. No cut-off for these calls is given here.
# How the values were obtained:
# [1] = test system: Mus musculus; test: Upregulation of phosphorylated p38 in Kunming mouse implanted with mouse H22 cells assessed as activation of p53 measured after 48 hrs by immunofluorescence analysis; format: functional; details: dose 10-30 µM
# [2] = Toxicity in Kunming mouse implanted with mouse H22 cells assessed as change in body weight at 10 mg/kg, iv administered for 7 consecutive days starting from day 11 post inoculation cotreated with DFMO at 200 mg/kg and measured after 18 days (reference value: -0.3 %); format: organism-based; details: in vivo, 192 h, time 8 day
# [3] = test system: H22; test: (§1) Potentiation of aspirin-induced antitumor activity against mouse H22 cells implanted in Kunming mouse assessed as reduction in tumor weight at 10 mg/kg, iv administered for 7 consecutive days starting from day 8 post inoculation cotreated with aspirin at 10 mg/kg and measured after 16 days (reference value: 1.37 +/- 0.60 g); format: functional; details: time 8 day
# [4] = test system: H22; test: Antimetastatic activity against mouse H22 cells implanted in Kunming mouse assessed as number of metastatic focus at 10 mg/kg, iv administered for 7 consecutive days starting from day 11 post inoculation and measured after 18 days (reference value: 5.73 +/- 14.6); format: functional; details: time 8 day
# [5] = test system: HepG2; test: Induction of apoptosis in human HepG2 cells after 48 hrs by AO/EB staining based assay; format: functional, cell-based; details: dose 50-70 µM
# [6] = test system: HepG2; test: Antiproliferative activity against human HepG2 cells assessed as inhibition of cell proliferation at 100 uM measured after 48 hrs by MTT assay relative to control; format: functional
# [7] = Cytotoxicity against human QSG7701 cells assessed as inhibition of cell proliferation at 30 uM measured after 48 hrs by MTT assay relative to control; format: cell-based
# [8] = Toxicity in Kunming mouse implanted with mouse H22 cells assessed mouse mortality at 10 mg/kg, iv administered for 7 consecutive days starting from day 8 post inoculation cotreated with DFMO at 200 mg/kg and measured after 16 days; format: organism-based; details: in vivo, 192 h, time 8 day
# [9] = Toxicity in Kunming mouse implanted with mouse H22 cells assessed as change in mouse body weight at 10 mg/kg, iv administered for 7 consecutive days starting from day 8 post inoculation cotreated with aspirin at 10 mg/kg and measured after 16 days (reference value: 16.7 %); format: organism-based; details: in vivo, 192 h, time 8 day
# [10] = Toxicity in iv dosed Kunming mouse assessed as maximum tolerated dose; format: organism-based; details: in vivo
# [11] = test system: Mus musculus; test: Downregulation of Bcl-2 in Kunming mouse implanted with mouse H22 cells at 10 to 30 uM measured after 48 hrs by immunofluorescence analysis; format: functional; details: dose 10-30 µM
# [12] = test system: H22; test: as §1, with “as” for “as reduction in”, “growth inhibition” for “weight”, “36 %)” for “1.37 +/- 0.60 g)”; format: functional; details: 192 h, time 8 day, read-out: TGI
# [13] = test system: H22; test: Potentiation of DFMO-induced antimetastatic activity against mouse H22 cells implanted in Kunming mouse assessed as inhibition of metastasis at 10 mg/kg, iv administered for 7 consecutive days starting from day 11 post inoculation cotreated with DFMO at 200 mg/kg and measured after 18 days relative to control; format: functional; details: 192 h, time 8 day
# [14] = Toxicity in Kunming mouse implanted with mouse H22 cells assessed as mouse mortality during lug metastasis assay at 10 mg/kg, iv administered for 7 consecutive days starting from day 8 post inoculation and measured after 16 days; format: organism-based; details: in vivo, 192 h, time 8 day
# [15] = test system: HepG2; test: Induction of ROS generation in human HepG2 cells after 48 hrs by DCFH-DA staining based assay; format: functional, cell-based; details: dose 50-70 µM
# [16] = Toxicity in Kunming mouse implanted with mouse H22 cells assessed as change in body weight at 10 mg/kg, iv administered for 7 consecutive days starting from day 11 post inoculation cotreated with aspirin at 10 mg/kg and measured after 18 days (reference value: -1.2 %); format: organism-based; details: in vivo, 192 h, time 8 day
# [17] = test system: Mus musculus; test: Downregulation of Bcl-2 in Kunming mouse implanted with mouse H22 cells at 10 to 30 uM after 48 hrs in presence of aspirin by immunofluorescence analysis; format: functional; details: dose 10-30 µM
# [18] = test system: SMMC-7721; test: Antiproliferative activity against human […] cells assessed as inhibition of cell proliferation at 30 uM measured after 48 hrs by MTT assay relative to control; format: functional
# [19] = test system: HepG2; test: Induction of apoptosis in human HepG2 cells assessed as upregulation of phosphorylated p38 at 50 to 70 uM measured after 48 hrs by immunofluorescence assay; format: functional, cell-based; details: dose 50-70 µM
# [20] = test system: HepG2; test: Antiproliferative activity against human HepG2 cells assessed as inhibition of cell proliferation measured after 48 hrs in presence of 800 uM aspirin by MTT assay; format: functional, cell-based; details: HepG2, 48 h
# [21] = test system: HepG2; test: Antiinvasive activity against human HepG2 cells assessed as inhibition of cell invasion measured after 48 hrs by wound healing assay; format: functional, cell-based; details: dose 50-70 µM
# [22] = test system: H22; test: Antimetastatic activity against mouse H22 cells implanted in Kunming mouse assessed as inhibition of metastasis at 10 mg/kg, iv administered for 7 consecutive days starting from day 11 post inoculation and measured after 18 days relative to control; format: functional; details: 192 h, time 8 day
# [23] = Antiproliferative activity against mouse H22 cells assessed as inhibition of cell proliferation measured after 48 hrs by MTT assay; format: functional, cell-based
# [24] = Toxicity in Kunming mouse implanted with mouse H22 cells assessed as change in mouse body weight at 10 mg/kg, iv administered for 7 consecutive days starting from day 8 post inoculation cotreated with DFMO at 200 mg/kg and measured after 16 days (reference value: 16.2 %); format: organism-based; details: in vivo, 192 h, time 8 day
# [25] = Toxicity in Kunming mouse implanted with mouse H22 cells assessed as change in body weight at 10 mg/kg, iv administered for 7 consecutive days starting from day 11 post inoculation and measured after 18 days (reference value: 5.2 %); format: organism-based; details: in vivo, 192 h, time 8 day
# [26] = test system: SMMC-7721; test: Antiproliferative activity against human […] cells assessed as inhibition of cell proliferation at 100 uM measured after 48 hrs by MTT assay relative to control; format: functional
# [27] = Toxicity in Kunming mouse implanted with mouse H22 cells assessed as mouse mortality at 10 mg/kg, iv administered for 7 consecutive days starting from day 8 post inoculation cotreated with aspirin at 10 mg/kg and measured after 16 days; format: organism-based; details: in vivo, 192 h, time 8 day
# [28] = test system: HepG2; test: Induction of lysosomal impairment in human HepG2 cells after 48 hrs by Lyso-tracker Red staining based assay; format: functional, cell-based; details: dose 50-70 µM
# [29] = test system: H22; test: Antitumor activity against mouse H22 cells implanted in Kunming mouse assessed as reduction in tumor weight at 10 mg/kg, iv administered for 7 consecutive days starting from day 8 post inoculation and measured after 16 days (reference value: 2.15 +/- 0.51 g); format: functional; details: time 8 day
# [30] = test system: HepG2; test: Antiinvasive activity against human HepG2 cells assessed as inhibition of cell invasion at 50 to 70 uM measured after 48 hrs in presence of aspirin by wound healing assay; format: functional, cell-based; details: dose 50-70 µM
# [31] = test system: HepG2; test: Antimigratory activity against human HepG2 cells assessed as inhibition of cell migration at 50 to 70 uM in presence of aspirin measured after 48 hrs by transwell assay; format: functional, cell-based; details: dose 50-70 µM
# [32] = test system: HepG2; test: Antiproliferative activity against human HepG2 cells assessed as inhibition of cell proliferation at 30 uM measured after 48 hrs by MTT assay relative to control; format: functional
# [33] = Toxicity in Kunming mouse implanted with mouse H22 cells assessed as change in mouse body weight at 10 mg/kg, iv administered for 7 consecutive days starting from day 8 post inoculation and measured after 16 days (reference value: 21 %); format: organism-based; details: in vivo, 192 h, time 8 day
# [34] = test system: Mus musculus; test: Upregulation of phosphorylated p38 in Kunming mouse implanted with mouse H22 cells assessed as activation of p53 measured after 48 hrs in presence of aspirin by immunofluorescence analysis; format: functional; details: dose 10-30 µM
# [35] = test system: H22; test: Potentiation of DFMO-induced antitumor activity against mouse H22 cells implanted in Kunming mouse assessed as tumor growth inhibition at 10 mg/kg, iv administered for 7 consecutive days starting from day 8 post inoculation cotreated with DFMO at 200 mg/kg and measured after 16 days (reference value: 38.8 %); format: functional; details: 192 h, time 8 day, read-out: TGI
smiles,measurement,setting,value
Cl.Cl.NCCCNCC(=O)NCc1cccc2c(=O)cc(-c3cccc4ccccc34)oc12,Activity,[1],Dose-dependent effect
same,Activity,[2],1.2%
same,Activity,[3],0.66 g
same,Activity,[4],40.5
same,Activity,[5],Dose-dependent effect
same,inhibition at 100 µM,[6],84.2%
same,"inhibition at 48 h, 30 µM",[7],< 5%
same,Activity,[8],Non-Toxic
same,Activity,[9],19.4%
same,MTD,[10],20 mg/kg
same,Activity,[11],Active
same,inhibition in vivo at 10 mg/kg,[12],69.2%
same,inhibition in vivo at 10 mg/kg,[13],48.9%
same,Activity,[14],Non-Toxic
same,Activity,[15],Dose-dependent effect
same,Activity,[16],4.3%
same,Activity,[17],Active
same,inhibition at 30 µM,[18],5.1%
same,Activity,[19],Active
same,IC50,[20],59.2 µM
same,inhibition,[21],Dose-dependent effect
same,inhibition in vivo at 10 mg/kg,[22],29.3%
same,IC50,[23],32.1 µM
same,Activity,[24],16.7%
same,Activity,[25],3.7%
same,inhibition at 100 µM,[26],87.1%
same,Activity,[27],Non-Toxic
same,Activity,[28],Dose-dependent effect
same,Activity,[29],1.3 g
same,inhibition,[30],Active
same,inhibition,[31],Active
same,inhibition at 30 µM,[32],7.9%
same,Activity,[33],4%
same,Activity,[34],Active
same,inhibition in vivo at 10 mg/kg,[35],43%
